Data reported in patent publication US20140148493A1, “Agricultural and Horticultural Insecticide Composition and Method for Using the Same” (NIHON NOHYAKU CO., LTD., priority 2011, published 2014).

Tests used:
Type in all cases: in vivo
Plutella xylostella = assay: Field test of insecticidal effect on Plutella xylostella (foliar application, Chinese kale); settings: flubendiamide 11.3 and/or tolfenpyrad 60 g a.i./ha; for Control effect (%) 4DAT5 / Number of larvae per plant 4DAT5: 4 days after the 5th treatment; for Number of larvae per plant 4DAT5 / Number of larvae per plant 4DAT6: 4-day intervals, Chinese kale field; for Control effect (%) 4DAT6 / Number of larvae per plant 4DAT6: 4 days after the 6th treatment
Protocol: (§1) In an experimental Chinese kale (Brassica oleracea var. acephala) field (sized 4 m×5 m and planted with 800 plants per plot), foliar application was conducted with a water-diluted agrochemical solution (an amount equivalent to 750 L/ha) containing a predetermined dose of a flubendiamide 20% water-dispersible granule and/or a predetermined dose of a tolfenpyrad 15% emulsifiable concentrate at 4-day intervals, 8 times in total. In plots of Plutella xylostella or Spodoptera litura, 20 plants per plot were chosen at random, the number of surviving larvae was measured before the agrochemical treatment, at 4 days after the 5th agrochemical treatment and at 4 days after the 6th agrochemical treatment. With reference to the number of larvae before the agrochemical treatment, the control effect was calculated according to the formula shown below. In addition, the expected value for the control effect of the mixed use was calculated according to Colby's equation shown below. […] As for plots of Spodoptera exigua, the calculation was performed based on the measurements at 4 days after the 7th agrochemical treatment and at 4 days after the 8th agrochemical treatment.
(§2) Control effect=100−{(Ta×Cb)/(Tb×Ca)}×100
(§3) Ta=the number of larvae after the agrochemical treatment in a treatment plot
(§4) Tb=the number of larvae before the agrochemical treatment in a treatment plot
(§5) Ca=the number of larvae after the agrochemical treatment in a non-treatment plot
(§6) Cb=the number of larvae before the agrochemical treatment in a non-treatment plot
(§7) E(expected value)=(X+Y)−(X−Y/100)
(§8) X=the control effect of flubendiamide alone
(§9) Y=the control effect of tolfenpyrad alone
(§10) In each table, 4DAT5, 4DAT6, 4DAT7 and 4DAT8 are as defined below, and the a. i. stands for active ingredient.
(§11) 4DAT5: the measurement at 4 days after the 5th agrochemical treatment
(§12) 4DAT6 the measurement at 4 days after the 6th agrochemical treatment

Spodoptera litura = assay: Field test of insecticidal effect on Spodoptera litura (foliar application, Chinese kale); settings: flubendiamide 11.3 and/or tolfenpyrad 60 g a.i./ha; for Control effect (%) 4DAT5 / Number of larvae per plant 4DAT5: 4 days after the 5th treatment; for Number of larvae per plant 4DAT5 / Number of larvae per plant 4DAT6: 4-day intervals, Chinese kale field; for Control effect (%) 4DAT6 / Number of larvae per plant 4DAT6: 4 days after the 6th treatment
Protocol: as §1, §2, §3, §4, §5, §6, §7, §8, §9, §10, §11, §12

Spodoptera exigua = assay: Field test of insecticidal effect on Spodoptera exigua (foliar application, Chinese kale); settings: flubendiamide 11.3 and/or tolfenpyrad 60 g a.i./ha; for Control effect (%) 4DAT7 / Number of larvae per plant 4DAT7: 4 days after the 7th treatment; for Number of larvae per plant 4DAT7 / Number of larvae per plant 4DAT8: 4-day intervals, Chinese kale field; for Control effect (%) 4DAT8 / Number of larvae per plant 4DAT8: 4 days after the 8th treatment
Protocol: as §1, §2, §3, §4, §5, §6, §7, §8, §9, §10
4DAT7 the measurement at 4 days after the 7th agrochemical treatment
4DAT8 the measurement at 4 days after the 8th agrochemical treatment

SMILES	Control effect (%) 4DAT5 (Plutella xylostella) [%]	Number of larvae per plant 4DAT5 (Plutella xylostella)	Control effect (%) 4DAT6 (Plutella xylostella) [%]	Number of larvae per plant 4DAT6 (Plutella xylostella)	Control effect (%) 4DAT5 (Spodoptera litura) [%]	Number of larvae per plant 4DAT5 (Spodoptera litura)	Control effect (%) 4DAT6 (Spodoptera litura) [%]	Number of larvae per plant 4DAT6 (Spodoptera litura)	Control effect (%) 4DAT7 (Spodoptera exigua) [%]	Number of larvae per plant 4DAT7 (Spodoptera exigua)	Control effect (%) 4DAT8 (Spodoptera exigua) [%]	Number of larvae per plant 4DAT8 (Spodoptera exigua)
CCc1nn(C)c(C(=O)NCc2ccc(Oc3ccc(C)cc3)cc2)c1Cl [Tolfenpyrad, 4-chloro-3-ethyl-1-methyl-N-[4-(p-tolyloxy)benzyl]pyrazole-5-carboxamide]	29.4	0.38	58.0	0.19	0	0.25	0	0.53	0	0.06	0	0.13
Cc1cc(C(F)(C(F)(F)F)C(F)(F)F)ccc1NC(=O)c1cccc(I)c1C(=O)NC(C)(C)CS(C)(=O)=O [Flubendiamide, 3-iodo-N′-(2-mesyl-1,1-dimethylethyl)-N-{4-[1,2,2,2-tetrafluoro-1-(trifluoromethyl)ethyl]-o-tolyl}phthalamide]	53.5	0.24	70.0	0.13	3.9	0.43	37.8	0.31	37.6	0.03	62.2	0.04
